The results in this text go back to ChEMBL document CHEMBL1139519, “Are L-adenosine and its derivatives substrates for S-adenosyl-L-homocysteine hydrolase?” (J Med Chem, 2005).

The target in experiment [1] is T1, Adenosylhomocysteinase (Homo sapiens, UniProt P23526). Description: Inhibitory potency against recombinant human placental S-Adenosyl-L-homocysteine Hydrolase.
Target sequence in this assay (P23526 whole entry): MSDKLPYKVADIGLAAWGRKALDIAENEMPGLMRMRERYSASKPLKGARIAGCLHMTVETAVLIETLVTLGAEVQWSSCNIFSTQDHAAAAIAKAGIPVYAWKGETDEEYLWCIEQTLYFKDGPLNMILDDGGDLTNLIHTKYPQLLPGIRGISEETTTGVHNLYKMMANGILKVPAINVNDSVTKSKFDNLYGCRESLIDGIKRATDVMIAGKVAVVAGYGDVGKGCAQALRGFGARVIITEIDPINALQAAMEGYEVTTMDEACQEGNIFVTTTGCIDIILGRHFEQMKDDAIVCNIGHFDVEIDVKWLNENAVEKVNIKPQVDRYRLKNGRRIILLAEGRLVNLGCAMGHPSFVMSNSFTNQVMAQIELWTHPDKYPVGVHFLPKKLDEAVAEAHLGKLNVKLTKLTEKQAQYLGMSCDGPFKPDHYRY
Experiment [2] has as its target T1, Adenosylhomocysteinase.
Target sequence in this assay (P23526 2-432 limits assumed): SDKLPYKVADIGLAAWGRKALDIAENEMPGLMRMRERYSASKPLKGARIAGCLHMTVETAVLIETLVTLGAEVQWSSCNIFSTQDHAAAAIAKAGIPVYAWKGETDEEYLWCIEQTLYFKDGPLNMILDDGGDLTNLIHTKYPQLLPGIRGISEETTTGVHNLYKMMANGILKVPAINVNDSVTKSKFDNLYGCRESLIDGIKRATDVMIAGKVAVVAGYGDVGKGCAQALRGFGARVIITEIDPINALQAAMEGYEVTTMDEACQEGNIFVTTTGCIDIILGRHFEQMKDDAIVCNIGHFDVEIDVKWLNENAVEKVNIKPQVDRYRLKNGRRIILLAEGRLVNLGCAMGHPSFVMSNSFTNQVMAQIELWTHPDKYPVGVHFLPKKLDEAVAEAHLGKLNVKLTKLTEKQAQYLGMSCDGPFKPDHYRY
Description: Inhibitory potency against recombinant human placental S-Adenosyl-L-homocysteine Hydrolase at 200 uM
In experiment [3] the target is T1, Adenosylhomocysteinase. This is another data set of the same source.
Target sequence in this assay (P23526 2-432 limits assumed): as above
Description: Inactivation constant against recombinant human placental S-Adenosyl-L-homocysteine Hydrolase

Active and inactive are the calls of the source. The calls are words filed in the database; no cut-off is given here.

A word on the Ki: it is a measure of affinity in units of concentration, obtained from inhibition or displacement. With `Nc1ncnc2c1ncn2[C@H]1OC(/C=N/O)C(O)[C@@H]1O` (single isomer, unassigned), the Ki at Adenosylhomocysteinase [1] was found to be 0.67 µM. Further, the Inhibitory potency result at Adenosylhomocysteinase [2] was “inactive”. This compound also came in with a Kinact at Adenosylhomocysteinase [3] of 0.16 min⁻¹.

Take `Nc1ncnc2c1ncn2C1O[C@H](CO)[C@@H](O)[C@H]1O` (single isomer, unassigned): on Adenosylhomocysteinase [2], the Inhibitory potency result was “inactive”.
